Patent US20230310412A1, “USE OF CASPASE INHIBITOR FOR ALLEVIATING OR TREATING OSTEOARTHRITIS” (LG CHEM, LTD., priority 2020, published 2023)
“Also recorded” adds a separate entry of the source.

Assays:
[1] = test system: osteoarthritis-induced beagle dogs; assay: Efficacy on improving walking ability (lameness score) in animal model of osteoarthritis; format: in vivo
Procedure: Beagle dogs were purchased from Orient Bio, and healthy animals were used for the experiment after a one-week quarantine cycle. After 1 week of recovery after surgical anterior cruciate ligament transection with medial meniscectomy, forced exercise for 30 minutes every day was carried out to induce osteoarthritis. The surgery for inducing osteoarthritis was performed under anesthesia after the animals were depilated on both knees. After broad disinfection of the incision site with povidone and 70% ethanol, the skin of the right knee was incised. By blunt dissection of the surrounding tissues, the articular surface of the distal end of femur was exposed. An instrument portal was created on the medial articular surface, and the meniscus and anterior cruciate ligament were excised. Wound closure was performed by the use of 4-0 nylon suture. […] The assessment about walking ability for evaluating the pain status and functional level of osteoarthritis animals was carried out according to the method proposed by Pashuck et al. (Troy D. Pashuck et al., J Orthop Res, 2016, 34(10): 1772-1779), and the lameness score as represented in Table 1 was recorded until the end of the experiment. […] The efficacy of nivocasan in an animal model of osteoarthritis was measured by evaluating the lameness score twice a week after a single intra-articular administration. […]

[2] = test system: IL-1β secretion in human peripheral blood mononuclear cells (PBMCs); assay: Suppressive efficacy against LPS-induced IL-1β secretion in human-derived PBMC; format: cell-based; settings: FIG. 2
Procedure: The inhibitory effects of nivocasan on inflammasome activation in human peripheral blood mononuclear cells (PBMCs) were evaluated by measuring LPS-induced IL-1β secretion. Freshly isolated PBMCs were plated at 2.5×10^5 cells/well (24-well plate) in RPMI-1640 media and treated with nivocasan or DMSO for 30 minutes, followed by incubation with 100 ng/ml LPS for 24 hours to induce inflammation. Levels of IL-1β in PBMC supernatants was measured by ELISA (R&D Systems Quantikine human IL-1β; detection limit: 7.8 pg/ml), and the results are represented in FIG. 2.

human chondrocytes = assay: Protective effect on TNF-α-induced apoptosis in human-derived chondrocytes; format: cell-based; settings: human normal chondrocytes, compound 30 min, then 10 ng/ml TNF-α and 1 μg/ml actinomycin D 18 h; Cell Death Detection ELISA; FIG. 3
Procedure: The protective effect of nivocasan on TNF-α-induced apoptosis was evaluated in human chondrocytes. Human normal chondrocytes were plated at 1×10^5 cells/well (collagen-coated 24-well plate) in chondrocyte media (Prigrow IV Medium, Applied Biological Materials Inc.) and incubated overnight. The cells were treated with nivocasan or DMSO for 30 minutes, followed by incubation with 10 ng/ml human recombinant TNF-α and 1 μg/ml actinomycin D for 18 hours to induce apoptosis. Apoptosis was measured by using Cell Death Detection ELISA kit, and the results are represented in FIG. 3.

[3] = test system: beagle dog model of osteoarthritis; assay: MRI evaluation of effect on joint structure in animal model of osteoarthritis; format: in vivo; settings: MRI before vs 3 months after single intra-articular administration; FIG. 6
Procedure: In a beagle dog model of osteoarthritis induced by daily forced exercise after surgical anterior cruciate ligament transection with medial meniscectomy, the effect on joint structure was evaluated by taking an MRI (SIGNA Pioneer 3.0T MR, GE Healthcare Co., USA) of the joint before a single intra-articular administration and 3 months thereafter.

[4] = test system: IL-1β secretion in THP-1 cells; assay: Suppressive efficacy against LPS/nigericin-induced IL-1β secretion in THP-1 cells; format: cell-based, human; settings: PMA-differentiated, LPS 100 ng/ml 24 h, compound 30 min, then 5 μM nigericin & 1 mM ATP 1 h, ELISA, FIG. 1
Procedure: To evaluate the inflammation blocking effects of nivocasan, IL-1β secretion was measured in THP-1 cells under conditions in which inflammation was induced by lipopolysaccharide (LPS)/nigericin treatment. The day before LPS treatment, THP-1 cells were plated at 2.5×10^5 cells/well (24-well plate) in RPMI-1640 media and treated with 0.5 μM phorbol 12-myristate 13-acetate (PMA) for macrophage differentiation during overnight culture. The media was then changed with Opti-MEM media and the cells were incubated with LPS 100 ng/ml (the first inflammation signal for […] up-regulation) for 24 hours. The cells were then washed with PBS twice and treated with nivocasan or DMSO for 30 minutes in Opti-MEM media, followed by incubation with 5 μM nigericin & 1 mM ATP for 1 hour to activate inflammasome (NLRP3 activation and IL-1β secretion). Secreted IL-1β was measured from cell media by using R&D Systems Quantikine human IL-1β (detection limit: 7.8 pg/ml), and the results are represented in FIG. 1.

[5] = test system: beagle dog model of osteoarthritis; assay: Histopathological evaluation of effect on joint in animal model of osteoarthritis; format: in vivo
Procedure: In a beagle dog model of osteoarthritis induced by daily forced exercise after surgical anterior cruciate ligament transection with medial meniscectomy, an autopsy was performed 3 months after a single intra-articular administration, and the joint was collected and fixed. The fixed tissue was subjected to conventional tissue processing such as demineralization, trimming, dehydration, paraffin embedding, sectioning and the like to prepare a specimen for histopathological examination, followed by hematoxylin eosin and safranin-o staining. An optical microscopy (Olympus BX53, Japan) was used to observe histopathological changes.
Histopathological evaluation was performed by comparing between groups with scoring as shown in Tables 3 to 8 according to the method proposed by Cook et al. (Cook et al., Osteoarthritis Cartilage. 2010; 18 Suppl 3:S66-S79), and the results are represented in FIG. 7.

Row | SMILES | improvement of walking ability (lameness score) ([1]; single intra-articular administration 0.1, 0.3, 1, 3 and 10 mg/knee, scored twice a week for 3 months, FIG. 4) | concentration showing maximum effect on LPS-induced IL-1β secretion ([2]; 100 ng/ml LPS 24 h) | suppression of LPS-induced IL-1β secretion ([2]; compound 30 min, then 100 ng/ml LPS 24 h, ELISA) | prevention of TNF-α-induced apoptosis (human chondrocytes) | bone marrow lesion (MRI score) [3] | synovitis (MRI score) [3] | suppression of LPS/nigericin-induced IL-1β secretion [4] | histopathology evaluation of the joints ([5]; autopsy 3 months after single intra-articular administration, FIG. 7) | improving cartilage structure ([5]; single administration, summary of Examples 4 to 6) | improvement of walking ability (lameness score), compared with nivocasan ([1]; single intra-articular administration of 10 mg, FIG. 5)
1 | CC(C)[C@@]1(C(=O)N[C@H]2CC(=O)O[C@]2(O)CF)CC(c2nccc3ccccc23)=NO1 [nivocasan, (R)—N-((2S,3S)-2-(fluoromethyl)-2-hydroxy-5-oxotetrahydrofuran-3-yl]-5-isopropyl-3-(isoquinolin-1-yl)-4,5-dihydroisoxazole-5-carboxamide] | showed the efficacy of the improvement of walking ability in a dose-dependent manner; also recorded: effective in improving walking ability | 0.3 µM | suppressed LPS-induced IL-1β secretion from PBMCs in a dose dependent manner | prevented TNF-α-induced apoptosis in human chondrocytes in a dose-dependent manner | improvement | improvement | suppressed LPS/nigericin-induced IL-1β secretion in THP-1 cells in a dose-dependent manner | dose-related histopathological improvement | effective in improving cartilage structure | 
2 | C[C@H](NC(=O)C(=O)Nc1ccccc1C(C)(C)C)C(=O)N[C@@H](CC(=O)O)C(=O)COc1c(F)c(F)cc(F)c1F [emricasan, N-(2-tert-butylphenyl)-2-oxoglycyl-N-[1(S)-(carboxymethyl)-2-oxo-3-(2,3,5,6-tetrafluorophenoxy)propyl]-L-alaninamide, reference compound] |  |  |  |  | improvement | improvement |  |  |  | improvement of a walking ability similar to that of 10 mg of nivocasan
